Assay results taken from patent publication US7148013B2, “Complex of Hepatitis B virus polymerase with p11 and method for controlling movement of the complex in HepG2 cell” (Korea Institute of Science and Technology, priority 2002, dated 2006).

Test system: HBVPol/p11 complex
Experiment: Immunofluorescent experiment and confocal microscopy: intracellular location of HBVPol/p11 complex in HepG2 cells co-delivered with HBVPol and p11
Assay type: cell-based, human
Details: HepG2 cell co-delivered with HBVPol and p11
Procedure: HepG2 was grown on a chamber slide charged with DMEM (supplemented with 0.1 mM non-essential amino acids and 10% FBS, culturing condition: 37° C., moisturized with a mixture of 95:5% (v/v) air and CO2), and Effectene (Qiagen) was used to deliver genes into the cell. Cells treated with EGTA and to which the gene was delivered, were washed with PBS and fixed with 100% methanol at −20° C. for 15 minutes. The slide was treated with a blocking solution (1% goat serum/PBS) at room temperature for 30 minutes and then reacted with anti-Myc rabbit (1:200) antibody against p11, anti-Flag rabbit (1:200) antibody against HBVPol, or anti-PML mouse (1:200) antibody at 4° C. for one day.
After reaction, the cells were reacted with anti-rabbit or anti-mouse goat secondary antibody, to which rhodamine or fluorscein isothiocyanate was attached, at 37° C. and then a coverslip was attached thereto with mounting solution. […]

Row | Structure (SMILES) | intracellular location of HBVPol and p11 (0.5 mM for 48 hours, FIG. 5a) | intracellular location of HBVPol and p11 (30 uM for 24 hours, FIG. 5b)
1 | O=C(O)CN(CCOCCOCCN(CC(=O)O)CC(=O)O)CC(=O)O [EGTA] | most of HBVPol and p11 migrated into the nucleus of the cell | 
2 | CC(C)[C@@H]1NC(=O)[C@H](C)OC(=O)[C@@H](C(C)C)NC(=O)[C@@H](C(C)C)OC(=O)[C@H](C(C)C)NC(=O)[C@H](C)OC(=O)[C@@H](C(C)C)NC(=O)[C@@H](C(C)C)OC(=O)[C@H](C(C)C)NC(=O)[C@H](C)OC(=O)[C@@H](C(C)C)NC(=O)[C@@H](C(C)C)OC1=O [valinomycine] |  | HBVPol and p11 remained in the cytoplasm of the cell
